Results on two compounds are retold here after patent US9376499B2, “PAR-1 activation by metalloproteinase-1 (MMP-1)” (Tufts Medical Center, Inc., priority 2009, dated 2016).

Non-standard residues stand in square brackets, D forms with d. Residues, ends and D or L forms follow the SMILES beside them. No end group written: not given here. *: point of attachment. 4Abz = Nc1ccc(C(=O)O)cc1; NHOH = ON*

A short description of assay [1]: Atherosclerotic lesion area in ApoE-deficient mice (en face Oil-Red-O). The class given is in vivo, mouse. The conditions noted are these: high-fat diet 15 weeks, s.c. 6 days a week, FN-439 5 mg/kg, P1pal-7 10 mg/kg; for mean lesion area, abdominal section of the aorta: vehicle 8.9%; for mean lesion area, aortic section, % of the total area: vehicle 12.9%. The protocol: Twenty five (25) 86.129P2-Apoe^fm1Unc/J mice, 7 weeks old, were separated into 3 groups and fed ad libitum with high-fat/high-cholesterol diet (21% fat, 0.21% cholesterol) (0120798, Research Diets) for 15 weeks. Group I included 8 mice (n=8) was used as a control group and received Vehicle (20% DMSO in 1×PBS). Group II included 8 mice (n=8) that were treated with MMP Inhibitor I FN-439 (Calbiochem) at a dose of 5 mg/kg. Lastly, group III included 9 mice (n=9) treated with 10 mg/kg of the P1pal-7 pepducin lipopeptide. […] P1pal-7 is a cell-penetrating pepducin lipopeptide based on the third intracellular loop (i3) of human PAR1 and acts as an antagonist of PAR1 signaling. All mice were injected subcutaneously with 100 μl of the corresponding treatment for 6 days a week. At the end of the treatment, and after a 4 hours fasting, the mice were anesthetized with ketamine/xylazine and pressure-fixed with 10% formalin. The heart and the aorta of each mouse were isolated, removed and fixed for 2 days in 10% formalin and adventitial fat was removed. The abdominal area of the aorta was cut and used for whole mount immunohistochemistry. The “aortic arch/thoracic” area and the rest of the “abdominal/iliac” area of the aorta were cut open and pinned on dissecting black wax and used for “en face” staining with Oil-Red-O.
To study the extent of artherosderotic plaque formation, pinned aortas were first fixed in 10% formalin and kept in 1×PBS. The aorta of the mice were then subjected to “en face” staining with Oil-Red-O, which stains lipids red. Briefly, the PBS was drained from the samples and the stain solution was added for 45 min. The stain was drained and the samples were washed first with 70% Ethanol and then with water, in order to remove the background. Digital pictures of the stained aortas were taken and the MetaXpress software (Molecular Devices) was used to define and quantify the total aortic area as well as the lesion areas. The ratio of lesion area to the total aortic area was calculated for the “aortic arch/thoracic” and the “abdominal/iliac” area. The aorta of each mouse was isolated and separated into three sections. The abdominal section (before and after the renal arteries) was separated and used for whole mount immunohistochemistry. The remaining sections were the one from the aortic arch to the mesenteric artery (aortic) and the other from after the renal arteries to the iliac arteries (abdominal). These sections of the aorta were used for the “en face” staining and the estimation of the atherosclerotic lesion area.

Assay [2] in a line: Angiogenesis in adventitia of abdominal aorta of ApoE-/- mice (CD31 whole mount immunostaining). Type of assay: in vivo, mouse. The conditions noted are these: 15 weeks. The protocol: Angiogenesis may promote the progression of atherosclerosis and contribute to plaque instability and rupture. […] Angiogenesis was therefore evaluated in the adventitia of aortas from apoE−/− mice fed a high fat diet for 15 weeks and treated with either the MMP-1 collagenase inhibitor, MMP Inh-1 (FN-439) or the PAR1 antagonist, P1pal-7. The mice were then anesthetized with Ketamine/Xylazine and pressure fixed with 10% formalin. The abdominal aorta was isolated, removed and fixed for 1 hour with 10% formalin and adventitial fat was removed. The abdominal aorta were then whole mount immunostained for CD31, a marker for endothelial cells and 3D projection images were constructed from multiple confocal sections using the following procedure. Briefly, the tissue was blocked for 1 hour with 5% goat serum in Tris buffered saline containing 0.3% Triton-X 100 (TBST) and incubated overnight at 4° C. with primary antibody diluted 1:1000 in TBST. After several washes with TBST, the tissue was incubated with fluorescently tagged secondary antibody diluted in TBST for 4 hours. The tissue was washed and post-fixed with 4% paraformaldehyde for 10 minutes. The aorta was then cut lengthwise and splayed open onto a microscope slide with the adventitial side up. The tissue was whole mounted with Vectashield mounting media and imaged using a Leica TCS SP2 confocal microscope […]. Confocal images were constructed into 3D projections of Z-stacks. Quantification of images was performed using NIH ImageJ. Antibodies used were: hamster anti-mouse PECAM-1 (Chemicon) and Cy3-anti-hamster (Jackson Immunolabs).

Another assay relates to platelets. The assay is described as follows: Platelet thrombus formation on collagen surface under arterial flow, heparin-anticoagulated whole blood. Type of assay: cell-based, human. The conditions noted are these: heparin 10 U/mL; shear rate 1,000 s-1; FN-439 3 μM, RWJ-56110 1 μM, pepducins 3 μM, aspirin 1 mM. The protocol:
Following incubation with inhibitors, the blood was perfused over a glass slide coated with fibrillar collagen type I.
A flow chamber (Glycotech) with Type-I fibrillar collagen-coated glass slides was mounted on the stage of an IMT-2 inverted microscope (Olympus) equipped with Retiga 1300 digital camera (QImaging) and 40× objective. One of the flow chamber inlets was connected to a syringe pump (Harvard Apparatus) calibrated to create a shear rate of 1,000^s-1. The whole blood pretreated with the various pharmacologic inhibitors was then perfused over the collagen-coated glass slide. After 2-15 min of perfusion, blood was removed from the flow chamber by gentle displacement with PIPES buffer and images of 8-10 fields were acquired using OpenLab software (Improvision). Acquired images were further analyzed using NIH Image 1.63 software. Images were first sharpened and the edges of separate platelets and platelet aggregates were determined. Following the adjustment of threshold, images were converted into the binary format, and the particle analysis function was activated to highlight the regions covered by platelets with the sensitivity set to one single adherent thrombocyte. For the conversion of pixels into square micrometers, a calibration curve was built using 2.5, 6, 20, 25, and 45 μm polystyrene beads (Polyscience) using acquisition conditions identical to the experimental. The mean area of formed thrombus was determined at 7 min. Area measurements in FIG. 6B represent the mean±s.e. of three separate experiments from five different blood donors.

Assay [3] in a line: Collagen-induced systemic platelet activation (thrombocytopenia) in guinea pigs. The class given is in vivo, guinea pig. The conditions noted are these: i.v. P1pal-7 3 mg/kg or FN-439 10 mg/kg, 10 min before 200 μg collagen. The protocol:
Animal experiments were performed in accordance with the National Institutes of Health guidelines and approved by the Tufts Medical Center Institutional Animal Care and Use Committee. 2-4 week old Hartley guinea pigs (170-260 g) were anesthetized by an i.p. injection of xylazine (10 mg/kg) plus ketamine (50 mg/kg) and then catheterized via the left jugular vein and injected (200 μL) with either vehicle (20% DMSO/80% water), P1pal-7 or FN-439. For determination of collagen-dependent systemic platelet activation, 10 min after administration of inhibitors, 200 μg collagen in 200 μL of PBS was delivered via the jugular vein. Ten min after collagen injection, blood was collected into sodium citrate (1% v/v final) from the contralateral jugular vein and platelet counts were measured with a Hemavet850. The enzymatic activity of active MMP-1 in supernatants and platelet lysates was determined using DQ collagen I as fluorogenic substrate in the presence or absence of 3 μM FN-439, or 20 μg/ml of control IgG or a MMP-1 blocking Ab (preincubated for 2 h at 37° C.), as indicated.
Intravascular platelet activation was then induced by an intravenous injection of collagen into the guinea pigs. Vehicle, P1pal-7 (3 mg/kg) or FN-439 (10 mg/kg) were delivered i.v. to the internal jugular vein of guinea pigs (n=6) and allowed to circulate for 10 min. […]

Turning to `CC(C)C[C@@H](NC(=O)[C@@H]1CCCN1C(=O)CNC(=O)c1ccc(N)cc1)C(=O)N[C@H](C)C(=O)NO` [FN-439] (H-[4Abz]GP[dL][dA]-{NHOH}), in assay [1], the “mean lesion area, abdominal section of the aorta” value stood at 4.1% and the “mean lesion area, aortic section, % of the total area” value amounted to 10.7%. Moreover, in assay [2], the “amount of CD31-positive vessels” value is “significantly reduced”, the “number of branch points per vessel area” value was “significantly inhibited” and the “number of vascular bundles in the adventitia of the aorta” value is “significantly reduced”. Besides, in the assay on platelets, the “attenuation of growth rate and size of platelet aggregate strings” value was roughly 75%. Also, the “protection against collagen-induced thrombocytopenia / intravascular platelet activation” value in assay [3] is given as “significant protection”.

With “P1pal-7: PAR1 i3 loop pepducin lipopeptide, KKSRALF (SEQ ID NO. 2), palmitate (also: palmitate, site not given here)”, in assay [1], the “mean lesion area, abdominal section of the aorta” value is listed as 2.3% and the “mean lesion area, aortic section, % of the total area” value is recorded as 8.1%. In assay [2], the “amount of CD31-positive vessels” value is on record as “significantly reduced”, the “number of branch points per vessel area” value was “significantly inhibited” and the “number of vascular bundles in the adventitia of the aorta” value was “significantly reduced”. Further, in the assay with platelets, the “attenuation of growth rate and size of platelet aggregate strings” value is roughly 75%. For the same compound, the “protection against collagen-induced thrombocytopenia / intravascular platelet activation” value in assay [3] is reported as “almost completely protected”.
